According to US20230312578A1, “6H-INDOLO[2,3-B]QUINOXALINE DERIVATIVES USEFUL IN THERAPY” (Vironova Medical AB, priority 2020, published 2023):
Like-named read-outs stand apart in the source and are kept apart here.

What was measured:
Assay type in all cases: cell-based
CCRF-CEM = assay: Human tumor cell line growth assay (SRB); settings: Leukemia, 48 h; for CC50: read-out: LC50 (the source's name)
[1] = Human tumor cell line growth assay (SRB); settings: human, MOLT-4 cells (leukemia), MOLT-4, 48 h, read-out: LC50
MOLT-4 = assay: Human tumor cell line growth assay (SRB); settings: Homo sapiens; Leukemia, MOLT-4, 48 h
[2] = Human tumor cell line growth assay (SRB); settings: human, A549/ATCC cells (NSCLC), read-out: LC50
A549/ATCC = assay: Human tumor cell line growth assay (SRB); settings: Homo sapiens, NSCLC, 48 h
[3] = Human tumor cell line growth assay (SRB); settings: human, EKVX cells (NSCLC), read-out: LC50
EKVX = assay: Human tumor cell line growth assay (SRB); settings: Homo sapiens, NSCLC, 48 h
[4] = Human tumor cell line growth assay (SRB); settings: human, NCI-H322M cells (NSCLC), read-out: LC50
NCI-H322M = assay: Human tumor cell line growth assay (SRB); settings: Homo sapiens, NSCLC, 48 h
[5] = Human tumor cell line growth assay (SRB); settings: human, NCI-H522 cells (NSCLC), NCI-H522, 48 h
NCI-H522 = assay: Human tumor cell line growth assay (SRB); settings: Homo sapiens; NSCLC, NCI-H522, 48 h
[6] = Human tumor cell line growth assay (SRB); settings: human, COLO 205 cells (colon), COLO 205, 48 h, read-out: LC50
COLO 205 = assay: Human tumor cell line growth assay (SRB); settings: Homo sapiens; Colon, COLO 205, 48 h
[7] = Human tumor cell line growth assay (SRB); settings: human, HCT-15 cells (colon), HCT-15, 48 h
HCT-15 = assay: Human tumor cell line growth assay (SRB); settings: Homo sapiens; Colon, HCT-15, 48 h
[8] = Human tumor cell line growth assay (SRB); settings: human, HT29 cells (colon), HT29, 48 h, read-out: LC50
HT29 = assay: Human tumor cell line growth assay (SRB); settings: Homo sapiens, HT-29; Colon, HT29, 48 h
[9] = Human tumor cell line growth assay (SRB); settings: human, KM12 cells (colon), KM12, 48 h, read-out: LC50
KM12 = assay: Human tumor cell line growth assay (SRB); settings: Homo sapiens; Colon, KM12, 48 h
[10] = Human tumor cell line growth assay (SRB); settings: human, SF-268 cells (CNS), SF-268, 48 h
SF-268 = assay: Human tumor cell line growth assay (SRB); settings: Homo sapiens; CNS, SF-268, 48 h
[11] = Human tumor cell line growth assay (SRB); settings: human, SF-295 cells (CNS), SF-295, 48 h, read-out: LC50
SF-295 = assay: Human tumor cell line growth assay (SRB); settings: Homo sapiens; CNS, SF-295, 48 h
[12] = Human tumor cell line growth assay (SRB); settings: human, SF-539 cells (CNS), SF-539, 48 h, read-out: LC50
SF-539 = assay: Human tumor cell line growth assay (SRB); settings: Homo sapiens; CNS, SF-539, 48 h
[13] = Human tumor cell line growth assay (SRB); settings: human, SNB-19 cells (CNS), SNB-19, 48 h, read-out: LC50
SNB-19 = assay: Human tumor cell line growth assay (SRB); settings: Homo sapiens; CNS, SNB-19, 48 h
[14] = Human tumor cell line growth assay (SRB); settings: human, SK-MEL-28 cells (melanoma), SK-MEL-28, 48 h, read-out: LC50
SK-MEL-28 = assay: Human tumor cell line growth assay (SRB); settings: Homo sapiens; Melanoma, SK-MEL-28, 48 h
[15] = Human tumor cell line growth assay (SRB); settings: human, UACC-62 cells (melanoma), UACC-62, 48 h, read-out: LC50
UACC-62 = assay: Human tumor cell line growth assay (SRB); settings: Homo sapiens; Melanoma, UACC-62, 48 h
[16] = Human tumor cell line growth assay (SRB); settings: human, OVCAR-4 cells (ovarian), OVCAR-4, 48 h, read-out: LC50
OVCAR-4 = assay: Human tumor cell line growth assay (SRB); settings: Homo sapiens; Ovarian, OVCAR-4, 48 h
NCI/ADR-RES = assay: Human tumor cell line growth assay (SRB); settings: Ovarian, 48 h; for CC50: read-out: LC50 (the source's name)
ACHN = assay: Human tumor cell line growth assay (SRB); settings: Renal, 48 h; for CC50: read-out: LC50 (the source's name)
UO-31 = assay: Human tumor cell line growth assay (SRB); settings: Renal, UO-31, 48 h; for CC50: read-out: LC50 (the source's name)
PC-3 = assay: Human tumor cell line growth assay (SRB); settings: Prostate, PC-3, 48 h; for CC50: read-out: LC50 (the source's name)
BT-549 = assay: Human tumor cell line growth assay (SRB); settings: Breast, BT-549, 48 h; for CC50: read-out: LC50 (the source's name)

Cc1cc2nc3c4cc(N)ccc4n(CCN(C)C)c3nc2cc1C [JBD-136, 6-(2-(dimethylamino)ethyl)-2,3-dimethyl-6H-indolo [2,3-b]quinoxalin-9-amine]
GI50 (CCRF-CEM): 862 nM | CC50 (CCRF-CEM): 76900 nM | CC50 at 48 h [1]: 71900 nM | GI50 (MOLT-4): 366 nM | CC50 at 48 h [2]: > 100000 nM | GI50 (A549/ATCC): 464 nM | CC50 at 48 h [3]: > 100000 nM | GI50 (EKVX): 1990 nM | CC50 at 48 h [4]: > 100000 nM | GI50 (NCI-H322M): 771 nM | LC50 at 48 h [5]: > 100000 nM | GI50 (NCI-H522): 771 nM | CC50 at 48 h [6]: 83600 nM | GI50 (COLO 205): 418 nM | LC50 (concentration killing 50% of cells) at 48 h [7]: > 100000 nM | GI50 (HCT-15): 528 nM | CC50 at 48 h [8]: > 100000 nM | GI50 (HT29): 430 nM | CC50 at 48 h [9]: 94700 nM | GI50 (KM12): 1200 nM | LC50 (50% lethal concentration) at 48 h [10]: 42700 nM | GI50 (SF-268): 1570 nM | CC50 at 48 h [11]: 33800 nM | GI50 (SF-295): 1240 nM | CC50 at 48 h [12]: 19500 nM | GI50 (SF-539): 882 nM | CC50 at 48 h [13]: > 100000 nM | GI50 (SNB-19): 767 nM | CC50 at 48 h [14]: 11400 nM | GI50 (SK-MEL-28): 2260 nM | CC50 at 48 h [15]: 7990 nM | GI50 (UACC-62): 1180 nM | CC50 at 48 h [16]: 59000 nM | GI50 (OVCAR-4): 1700 nM | GI50 (NCI/ADR-RES): 506 nM | CC50 (NCI/ADR-RES): > 100000 nM | GI50 (ACHN): 367 nM | CC50 (ACHN): 57300 nM | GI50 (UO-31): 332 nM | CC50 (UO-31): 55300 nM | GI50 (PC-3): 1280 nM | CC50 (PC-3): 51900 nM | GI50 (BT-549): 1780 nM | CC50 (BT-549): 27900 nM

Cc1cc2nc3c4cc([N+](=O)[O-])ccc4n(CCN(C)C)c3nc2cc1C [JBA-185, 2-(2,3-dimethyl-9-nitro-6H-indolo[2,3-b]quinoxalin-6-yl)-N,N-dimethylethanamine]
GI50 (CCRF-CEM): 642 nM | CC50 (CCRF-CEM): > 100000 nM | CC50 at 48 h [1]: > 100000 nM | GI50 (MOLT-4): 368 nM | CC50 at 48 h [2]: 94400 nM | GI50 (A549/ATCC): 387 nM | CC50 at 48 h [3]: > 100000 nM | GI50 (EKVX): 477 nM | CC50 at 48 h [4]: > 100000 nM | GI50 (NCI-H322M): 467 nM | LC50 at 48 h [5]: > 100000 nM | GI50 (NCI-H522): 595 nM | CC50 at 48 h [6]: > 100000 nM | GI50 (COLO 205): 360 nM | LC50 (concentration killing 50% of cells) at 48 h [7]: > 100000 nM | GI50 (HCT-15): 349 nM | CC50 at 48 h [8]: > 100000 nM | GI50 (HT29): 375 nM | CC50 at 48 h [9]: > 100000 nM | GI50 (KM12): 567 nM | LC50 (50% lethal concentration) at 48 h [10]: > 100000 nM | GI50 (SF-268): 793 nM | CC50 at 48 h [11]: 8640 nM | GI50 (SF-295): 388 nM | CC50 at 48 h [12]: 18100 nM | GI50 (SF-539): 387 nM | CC50 at 48 h [13]: > 100000 nM | GI50 (SNB-19): 493 nM | CC50 at 48 h [14]: 5650 nM | GI50 (SK-MEL-28): 807 nM | CC50 at 48 h [15]: 5780 nM | GI50 (UACC-62): 514 nM | CC50 at 48 h [16]: > 100000 nM | GI50 (OVCAR-4): 452 nM | GI50 (NCI/ADR-RES): 415 nM | CC50 (NCI/ADR-RES): > 100000 nM | GI50 (ACHN): 316 nM | CC50 (ACHN): 2460 nM | GI50 (UO-31): 187 nM | CC50 (UO-31): 21200 nM | GI50 (PC-3): 187 nM | CC50 (PC-3): > 100000 nM | GI50 (BT-549): 1950 nM | CC50 (BT-549): > 100000 nM
